Test results from US10458911B2, “Method for searching candidate material for anti-cancer drug using localized surface plasmon resonance” (KOREA UNIVERSITY RESEARCH AND BUSINESS FOUNDATION, priority 2015, dated 2019).

Tests used:
[1] = target: T1, STAT3 protein extracted from MCF-7 cells (Homo sapiens, UniProt P40763); test: Single nanoplasmonic biosensor (LSPR shift), dimerization step with STAT3 extracted from MCF-7 cells treated with STA-21; assay type: cell-based
T1 construct: Phosphorylated STAT3 protein (10 μg mL^−1) extracted from Michigan Cancer Foundation-7 (MCF-7) cells was used; endogenous in cells; host or cells: MCF-7
Description: Subsequently, the phosphorylation and the dimerization of STAT3 were conducted as follows. In the first step, after ˜50 nm AuNPs were immobilized onto a coverslip slide, all unbound AuNPs and contaminants were removed, and the surface of the amino-modified AuNPs was cleaned by injecting nuclease-free water for 1 h. In the second step, after STAT3 protein was conjugated to the AuNPs, 300 μL, of the STAT3 solution ([…] in 50 mM Tris-HCl buffer, pH 7.4, containing 150 mM NaCl and 25% glycerol) containing STAT3 protein (10 μg mL^−1) was injected into the immobilized AuNPs and incubated overnight. […]
(§1) The changes in the LSPR spectra of the single amino-modified AuNPs in response to STAT3 protein conjugation, STAT3 phosphorylation, dimerization or inhibition of STAT3 dimerization were recorded. […] The wavelength shift (Δλmax) was calculated using the following formula: λmax (after reaction)−λmax (before reaction).
The MCF-7 cells, human breast tumor cell lines, were cultured in Dulbecco's modified Eagle's medium (DMEM, Thermo Scientific, USA) containing 10% (v/v) fetal bovine serum (FBS, Thermo Scientific, USA) and 3% penicillin/streptomycin (Thermo Scientific, USA) at 37° C. in a humidified atmosphere containing 5% CO2. The inocula of cells were determined using a hemacytometer with a vital dye, trypan blue. […]

[2] = target: T2, STAT3 protein (Homo sapiens, UniProt P40763); test: Native polyacrylamide gel electrophoresis of STAT3 dimerization and its inhibition; assay type: biochemical; conditions: lane 4, with STA-21; 167 kDa dimer without inhibitor (lane 3); FIG. 5A
Excerpt: Analysis of STAT3 dimerization and inhibition of STAT3 dimerization was confirmed by native polyacrylamide gel electrophoresis on 6% native gels using a standard protocol (Y. Jv, B. Li and R. Cao, Chem. Commun., 2010, 46, 80178019). The samples which formed the dimerization and inhibited the dimerization were loaded into the 6% native gel running at a voltage of 10 V cm^−1.

[3] = target: T2, STAT3 protein; test: Single nanoplasmonic biosensor (LSPR shift), inhibition of STAT3 dimerization with recombinant STAT3; assay type: biochemical; design: purchased Sigma Aldrich (Korea)
Description: Individual amino-modified AuNPs, ˜50 nm AuNPs, were immobilized onto a glutaraldehyde coated coverslip slide (22×40×0.1 mm) by dropping 10 μL of the dilute amino-modified AuNP solution (FIG. 2). The glass slide was mounted to an RC-30HV closed-bath imaging chamber (Warner Instruments, USA) to visualize the AuNPs after the addition of adsorbates and reactants. The imaging chamber (Warner Instruments, USA) was subsequently inserted onto the holder of the darkfield microscope (Eclipse TE2000-U, Nikon, Japan), and the fluidic flow was set at 100 μL min^−1 by connection to a syringe pump (Harvard Apparatus).
Subsequently, the phosphorylation and the dimerization of STAT3 were conducted as follows. In the first step, after ˜50 nm AuNPs were immobilized onto a coverslip slide, all unbound AuNPs and contaminants were removed, and the surface of the amino-modified AuNPs was cleaned by injecting nuclease-free water for 1 h. […]
as §1

T2 sequence (P40763 whole entry): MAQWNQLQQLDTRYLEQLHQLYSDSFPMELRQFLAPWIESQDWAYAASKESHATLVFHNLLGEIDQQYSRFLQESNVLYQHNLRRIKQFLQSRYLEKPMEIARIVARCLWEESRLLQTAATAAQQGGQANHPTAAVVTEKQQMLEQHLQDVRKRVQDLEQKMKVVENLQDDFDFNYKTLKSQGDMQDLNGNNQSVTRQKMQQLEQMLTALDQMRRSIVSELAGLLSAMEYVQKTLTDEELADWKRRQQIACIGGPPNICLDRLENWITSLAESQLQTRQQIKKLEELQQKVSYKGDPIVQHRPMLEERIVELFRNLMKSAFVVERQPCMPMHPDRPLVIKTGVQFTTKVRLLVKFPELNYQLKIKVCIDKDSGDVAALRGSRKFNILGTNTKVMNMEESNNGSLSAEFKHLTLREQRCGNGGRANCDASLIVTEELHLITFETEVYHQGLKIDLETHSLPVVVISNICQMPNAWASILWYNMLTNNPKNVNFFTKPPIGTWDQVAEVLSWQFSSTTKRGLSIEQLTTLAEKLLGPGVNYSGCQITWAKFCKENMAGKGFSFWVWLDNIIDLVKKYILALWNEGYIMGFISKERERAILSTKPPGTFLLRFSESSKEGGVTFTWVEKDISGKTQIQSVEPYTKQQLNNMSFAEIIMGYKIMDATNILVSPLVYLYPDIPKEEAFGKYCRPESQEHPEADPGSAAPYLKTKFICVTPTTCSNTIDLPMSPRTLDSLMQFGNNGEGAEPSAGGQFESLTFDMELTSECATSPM
T1 sequence (P40763 2-770 limits assumed): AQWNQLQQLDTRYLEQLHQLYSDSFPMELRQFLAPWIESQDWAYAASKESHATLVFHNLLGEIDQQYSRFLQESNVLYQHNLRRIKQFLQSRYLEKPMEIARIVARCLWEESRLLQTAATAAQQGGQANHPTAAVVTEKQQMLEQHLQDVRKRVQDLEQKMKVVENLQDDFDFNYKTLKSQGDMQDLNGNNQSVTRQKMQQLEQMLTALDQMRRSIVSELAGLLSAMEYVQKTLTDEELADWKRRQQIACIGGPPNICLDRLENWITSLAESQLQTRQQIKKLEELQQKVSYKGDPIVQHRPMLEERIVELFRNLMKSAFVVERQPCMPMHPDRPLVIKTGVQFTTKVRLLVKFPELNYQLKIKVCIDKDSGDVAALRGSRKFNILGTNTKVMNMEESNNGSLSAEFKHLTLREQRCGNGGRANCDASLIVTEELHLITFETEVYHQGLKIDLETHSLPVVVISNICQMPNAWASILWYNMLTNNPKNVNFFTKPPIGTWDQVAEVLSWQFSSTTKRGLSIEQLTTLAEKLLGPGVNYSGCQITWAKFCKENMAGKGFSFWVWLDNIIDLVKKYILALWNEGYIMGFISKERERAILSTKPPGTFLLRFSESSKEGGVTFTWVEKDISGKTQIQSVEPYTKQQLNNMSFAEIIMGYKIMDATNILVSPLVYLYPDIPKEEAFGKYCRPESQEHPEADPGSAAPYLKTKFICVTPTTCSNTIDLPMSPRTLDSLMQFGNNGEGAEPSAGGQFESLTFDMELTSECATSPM

STAT3 dimer formation ([1]; STAT3 from MCF-7 cells treated with STA-21): did not form a STAT3 dimer
red shift of the LSPR λmax for the dimerization step in the presence of inhibitor ([1]; STAT3 from MCF-7 cells treated with STA-21 for 24 h, 10.00 nm in the absence, FIG. 4C): 3.34 nm
STAT3 species observed by Native PAGE [2]: 90 kDa monomer
red shift of the LSPR λmax in the dimerization step in the presence of inhibitor ([3]; STA-21 1 μM, recombinant STAT3 protein, 9.00 nm in the absence, FIG. 4C): 2.65 nm
STAT3 dimerization inhibited ([3]; STA-21 at 10^3 nM, recombinant STAT3): 100%
SMILES: C[C@@H]1CC(=O)c2c(ccc3c2C(=O)c2cccc(O)c2C3=O)C1 [STA-21]
